Laboratory results taken from patent US20130116323A1, “METHODS OF IMPROVING OR PRESERVING LUNG FUNCTION IN A PATIENT WITH A PULMONARY DISORDER” (The Leland Stanford Junior University, priority 2011, published 2013).
“Also recorded” adds a separate entry of the source.

Tests used:
[1] = system: CF patients; experiment: Phase II randomized placebo-controlled trial of oral NAC in CF patients: lung function by spirometry; assay type: in vivo, human
Method: A 24-week (6-month) multi-center large clinical trial was designed with randomization stratified to improve balance of baseline characteristics between treatment groups, and to improve precision between group treatment effects.
(§1) A 6-month multi-center phase II clinical trial was performed to evaluate the effect of N-acetylcysteine (PharmaNAC®, BioAdvantex Pharma, Missisauga, Ontario Canada)) 900 mg effervescent tablets taken orally 3 times a day on airway inflammation in CF patients. 70 subjects were randomized to placebo or study drug. Randomization was stratified by study site, baseline FEV1, age, gender, chronic azithromycin, inhaled aztreonam for inhalation solution (AZLI) or tobramycin inhalation solution, USP (TOBI®, Novartis) and ibuprofen use. A cohort of 16 subjects served as an initial safety cohort.
General objectives of the study included determination of safety, tolerability and efficacy of NAC versus placebo at 0 week, 6 weeks, 12 week and 24 week time points. […]
(§2) The primary efficacy endpoint in this study were sputum elastase activity as measured by ELISA assay reflecting lung inflammation. […]
(§3) The effect of NAC on chronic airway inflammation was measured by examining the change in the log10 of neutrophil elastase activity measured in sputum from enrollment to the end of the trial. The effect of NAC on neutrophil recruitment, lung function, pulmonary and sinus exacerbations, and on weight of CF subjects was measured by: change in the sputum neutrophil count, change in IL-8 in sputum and plasma, change in GSH in whole blood, incidence of pulmonary exacerbations, number of and time to first pulmonary exacerbation, incidence and number of antibiotics for any reason, and change in FEV1. Patient-reported outcomes (PRO) were measured by the CFQ-R and CFRD instruments.

[2] = system: Human Neurophil Elastase (HNE); experiment: Phase II trial in CF patients: sputum neutrophil elastase activity (airway inflammation); assay type: in vivo; details: 900 mg orally 3 times a day, 24 weeks, versus placebo
Method: A 6-month multi-center phase II clinical trial was performed to evaluate the effect of N-acetylcysteine (PharmaNAC®, BioAdvantex Pharma, Missisauga, Ontario Canada)) 900 mg effervescent tablets taken orally 3 times a day on airway inflammation in CF patients. 70 subjects were randomized to placebo or study drug. Randomization was stratified by study site, baseline FEV1, age, gender, chronic azithromycin, inhaled aztreonam for inhalation solution (AZLI) or tobramycin inhalation solution, USP (TOBI®, Novartis) and ibuprofen use. A cohort of 16 subjects served as an initial safety cohort. The primary efficacy endpoint in this study were sputum elastase activity as measured by ELISA assay reflecting lung inflammation. […] The effect of NAC on chronic airway inflammation was measured by examining the change in the log10 of neutrophil elastase activity measured in sputum from enrollment to the end of the trial. The effect of NAC on neutrophil recruitment, lung function, pulmonary and sinus exacerbations, and on weight of CF subjects was measured by: change in the sputum neutrophil count, change in IL-8 in sputum and plasma, change in GSH in whole blood, incidence of pulmonary exacerbations, number of and time to first pulmonary exacerbation, incidence and number of antibiotics for any reason, and change in FEV1. Patient-reported outcomes (PRO) were measured by the CFQ-R and CFRD instruments.

[3] = system: CF patients; experiment: Phase II trial in CF patients: pulmonary and sinus exacerbations and new antibiotic use; assay type: in vivo, human; details: 900 mg orally 3 times a day, 24 weeks, versus placebo
Method: A 6-month multi-center phase II clinical trial was performed to evaluate the effect of N-acetylcysteine (PharmaNAC®, BioAdvantex Pharma, Missisauga, Ontario Canada)) 900 mg effervescent tablets taken orally 3 times a day on airway inflammation in CF patients. 70 subjects were randomized to placebo or study drug. Randomization was stratified by study site, baseline FEV1, age, gender, chronic azithromycin, inhaled aztreonam for inhalation solution (AZLI) or tobramycin inhalation solution, USP (TOBI®, Novartis) and ibuprofen use. A cohort of 16 subjects served as an initial safety cohort. […]
as §2, §3

[4] = system: CF patients; experiment: Phase II trial in CF patients: initial 16 subject safety cohort; assay type: in vivo, human; details: first 16 subject safety cohort
Method: as §1
General objectives of the study included determination of safety, tolerability and efficacy of NAC versus placebo at 0 week, 6 weeks, 12 week and 24 week time points. More specific objectives included evaluation of: (a) effect of NAC on number of pulmonary and sinus exacerbations and antibiotic use, (b) effect of NAC on lung inflammation; (c) effect of NAC on pulmonary function; (d) effect of NAC on weight; (e) effect of NAC on quality of life (QOL) and (f) whether NAC causes pulmonary hypertension if used chronically in high doses.
Effect of long-term treatment with NAC in promoting the development of pulmonary hypertension (PH) in subjects with cystic fibrosis is examined. A panel of clinical and molecular studies, performed at 6-week intervals, is assessed. […]

[5] = compared with cysteine; cited from earlier work
[6] = compared with the stable cysteine disulfide; cited from earlier work
[7] = system: patients with COPD; details: 600 mg oral NAC per day, COPD patients with at least two exacerbations per year for 2 years; cited from earlier work
[8] = system: ARDS and ALI; details: randomized controlled trials; cited from earlier work
[9] = system: patients with IPF; details: 600 mg NAC three times daily added to prednisone plus azothioprine, one year, versus standard therapy alone; cited from earlier work
[10] = effects counter to those reported for NAC; cited from earlier work
[11] = 900 mg orally 3 times a day, 6-month period, versus placebo

In the case of CC(=O)N[C@@H](CS)C(=O)O [NAC, N-acetylcysteine], the “FEV1 (lung function) versus baseline” value ([1]; 900 mg effervescent tablets orally 3 times a day, 6-month trial period, versus placebo (P=0.02)) is reported as “maintained baseline FEV1; also recorded: maintained lung function”, the “FEF (lung function)” value [1, 11] is reported as “maintained lung function” and the “FVC (lung function)” value [1, 11] is reported as “maintained lung function”. For the same molecule, the “airways inflammation, measured by HNE” value [2] was “No difference was detected”, the new antibiotic prescriptions [3] was “No difference was detected” and the “number of pulmonary or sinus exacerbations” value [3] was “No difference was detected”. For the same molecule, the adverse events [4] was “No adverse events”, the pulmonary hypertension [4] was “no pulmonary hypertension” and the “stability relative to cysteine” value [5] was “about 10 times”. For the same molecule, the “solubility relative to cystine” value [6] was “much more soluble”, the “preventing deterioration in lung function and exacerbations” value [7] was “ineffective” and the early mortality [8] was “no effect”. The “deterioration of DLCO” value [9] was “slows the deterioration” and the “deterioration of vital capacity” value [9] was “slows the deterioration”.

In the case of CC(=O)N[C@@H](CSSC[C@H](NC(C)=O)C(=O)O)C(=O)O [oxidized form of NAC, di-N-acetylcysteine], the “bioactive dose relative to NAC” value [10] is listed as 10-100 fold less than NAC.
